Experiment [1] has as its target T1, Adenosine receptor A1 (Rattus norvegicus, UniProt P25099).
T1 sequence (P25099 whole entry): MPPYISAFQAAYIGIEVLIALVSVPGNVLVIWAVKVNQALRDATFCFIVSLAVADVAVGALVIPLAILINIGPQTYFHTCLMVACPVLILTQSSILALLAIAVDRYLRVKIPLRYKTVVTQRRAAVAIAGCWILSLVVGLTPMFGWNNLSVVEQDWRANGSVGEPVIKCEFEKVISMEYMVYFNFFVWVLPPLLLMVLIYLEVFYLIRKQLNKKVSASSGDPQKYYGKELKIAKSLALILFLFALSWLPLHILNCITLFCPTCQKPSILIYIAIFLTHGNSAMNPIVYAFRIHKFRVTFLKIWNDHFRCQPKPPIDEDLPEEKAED
As to the kind of experiment: Inhibition of 1 nM [3H]- N6-(phenylisopropyl) adenosine binding to Adenosine A1 receptor in rat cerebral cortical membranes. Type of experiment: cell membranes, Membrane.

Experiment [2] deals with Adenosine A2 receptor (Homo sapiens, UniProt P29275+P29274).
Description: Inhibition of the stimulation by 5'-(N-ethylcarbamoyl) adenosine of adenyl cyclase via adenosine A2 receptor in human platelet membranes.
Experiment [3] has as its target T1, Adenosine receptor A1. Put plainly: Inhibition of […] nM [3H]- N6- (phenylisopropyl) adenosine binding to Adenosine A1 receptor.
Experiment [4] addresses Adenosine A2 receptor (Rattus norvegicus, UniProt P29276+P30543). The settings on record: pc-12.
Description: Inhibition of the stimulation by 5'-(N-ethylcarbamoyl) adenosine of adenyl cyclase via Adenosine A2 receptor in rat PC12 membranes
The target of experiment [5] is T1, Adenosine receptor A1. Put plainly: Inhibition of 1 nM [3H]- N6 -(phenylisopropyl) adenosine binding to Adenosine A1 receptor in rat fat cell membrane. The experiment is classed as cell-based.
Experiment [6] addresses T1, Adenosine receptor A1. As to the kind of experiment: Inhibition of […] nM [3H]- N6- (phenylisopropyl) adenosine binding to A1 adenosine receptor in rat cerebral cortical membranes. The experiment is classed as cell membranes, Membrane.
Experiment [7] deals with T1, Adenosine receptor A1. Put plainly: Inhibition of N6-(phenylisopropyl)adenosine-elicited inhibition of adenylate cyclase at A1 adenosine receptor in rat fat cell membrane.
The target of experiment [8] is T1, Adenosine receptor A1. As to the kind of experiment: Inhibition of […] nM [3H]- N6- (phenylisopropyl) adenosine binding to Adenosine A1 receptor in rat cerebral cortical membranes; I = Inactive. The experiment is classed as cell membranes, Membrane.
In experiment [9] the target is T1, Adenosine receptor A1. Put plainly: Inhibition of N6-(phenylisopropyl)adenosine-elicited inhibition of adenylate cyclase at Adenosine A1 receptor in rat fat cell membrane; I =inactive.

One may read the Ki as the equilibrium dissociation constant of an inhibitor or competing ligand from its target. The low end stands for tighter binding, the high end for weaker binding. As to `CCCn1c(=O)c2c(nc(-c3ccc(C(=O)O)cc3)n2C)n(CCC)c1=O`, the Ki stood at 4800 nM at Adenosine receptor A1 [1] and 13000 nM at Adenosine A2 receptor [2].
For `CCCn1c(=O)c2c(nc(-c3ccccc3)n2C)n(CCC)c1=O`, in that order: 2300 nM and 2400 nM.
For `Cn1c(=O)c2c(nc(-c3ccccc3)n2C)n(C)c1=O` the same measures were 15000 nM and 14000 nM.
For `Cn1c(=O)[nH]c(=O)c2[nH]cnc21` [3-METHYLXANTHINE], in that order: 35000 nM and 240000 nM.
Take `Cn1c(=O)[nH]c2[nH]cnc2c1=O` [1-METHYLXANTHINE]: the inhibitory constant (Ki) came to 17000 nM on Adenosine receptor A1 [3] and 1900 nM at Adenosine A2 receptor [2].
Regarding `CCCn1c(=O)c2c(nc(-c3ccc(S(=O)(=O)O)cc3)n2C)n(CCC)c1=O`, the Ki stood at 5600 nM at Adenosine A2 receptor [4], 15000 nM at Adenosine receptor A1 [1], 4900 nM at Adenosine receptor A1 [5] and 2100 nM at Adenosine A2 receptor [2].
For `CCCn1c(=O)[nH]c(=O)c2[nH]c(-c3ccc(S(=O)(=O)O)cc3)nc21` the same measures were 17000 nM, 58000 nM, 33000 nM and 2700 nM.
`CC(C)CCn1c(=O)c2nc(-c3ccccc3)[nH]c2n(CC(C)C)c1=O` registered an inhibition constant Ki at Adenosine A2 receptor [2] of 2300 nM.
For `CCCn1c(=O)c2c(nc(-c3ccc(C(=O)OC)cc3)n2C)n(CCC)c1=O`, the Ki on Adenosine receptor A1 [1] stood at 3100 nM; on Adenosine A2 receptor [2], 26000 nM.
Consider `Cn1c(=O)[nH]c2[nH]c(-c3ccccc3)nc2c1=O`, for which the Ki on Adenosine A2 receptor [4] was determined as 250 nM; at Adenosine receptor A1 [6] it was 300 nM; on Adenosine A2 receptor [2] it was 860 nM; on Adenosine receptor A1 [7] it was 130 nM.
For the compound `CCCn1c(=O)[nH]c(=O)c2[nH]c(C3CCCCC3)nc21`, the Ki is 850 nM at Adenosine receptor A1 [1] and 1100 nM on Adenosine A2 receptor [2].
With `CCCn1c(=O)c2c(ncn2C)n(CCC)c1=O`, the Ki on Adenosine A2 receptor [4] is 5300 nM; at Adenosine receptor A1 [1], 3400 nM; on Adenosine receptor A1 [5], 12000 nM; at Adenosine A2 receptor [2] it was 2800 nM.
For `CCCn1c(=O)[nH]c(=O)c2[nH]c(-c3ccc(C(=O)O)cc3)nc21`, the Ki on Adenosine receptor A1 [1] amounted to 57000 nM; on Adenosine A2 receptor [2], 14000 nM.
`CCCn1c(=O)c2[nH]c(-c3ccccc3)nc2n(CCC)c1=O`: the affinity on Adenosine receptor A1 [5], expressed as Ki, was 5.9 nM.
As to `Cn1c(=O)c2nc(-c3ccccc3)[nH]c2n(C)c1=O` [8-PHENYL THEOPHYLLINE], the Ki on Adenosine A2 receptor [4] came out at 1600 nM; at Adenosine A2 receptor [2] it was 1900 nM.
Regarding `CCCn1c(=O)c2c(nc(C3CCCC3)n2C)n(CCC)c1=O`, the Ki at Adenosine A2 receptor [2] was 220 nM.
Turning to `Cn1c(=O)c2c(nc(-c3ccc(S(=O)(=O)O)cc3)n2C)n(C)c1=O`, the Ki at Adenosine A2 receptor [4] is 150000 nM; at Adenosine receptor A1 [8], “Not Active”; on Adenosine A2 receptor [2] it was 57000 nM; at Adenosine receptor A1 [9], “Not Active”.
With `CC(C)CCn1c(=O)c2nc[nH]c2n(CC(C)C)c1=O`, the Ki came to 1600 nM at Adenosine receptor A1 [1] and 6500 nM at Adenosine A2 receptor [2].
`CCCn1c(=O)c2nc(-c3ccc(C(=O)O)cc3)[nH]c2n(CCC)c1=O` showed a Ki on Adenosine receptor A1 [1] of 200 nM. This lies in the sub-micromolar range.
For the compound `CC(C)CCn1c(=O)c2nc(-c3ccc(S(=O)(=O)O)cc3)[nH]c2n(CC(C)C)c1=O`, the Ki worked out at 1200 nM on Adenosine receptor A1 [1] and 520 nM on Adenosine A2 receptor [2].
On Adenosine A2 receptor [2], `Cn1c(=O)c2c(nc(C3CCCCC3)n2C)n(C)c1=O` came in with a Ki of 190 nM.
As to `Cn1c(=O)c2c(nc(C3CCCC3)n2C)n(C)c1=O`, the Ki is 3800 nM at Adenosine A2 receptor [4], 33000 nM on Adenosine receptor A1 [1], 14900 nM on Adenosine receptor A1 [5] and 2400 nM at Adenosine A2 receptor [2].
For the compound `CCCn1c(=O)[nH]c(=O)c2[nH]c(-c3ccccc3)nc21`, the values for the Ki on Adenosine receptor A1 [1] and on Adenosine A2 receptor [2] were 9800 nM and 11000 nM, respectively.
For `COC(=O)c1ccc(-c2nc3c(c(=O)n(C)c(=O)n3C)n2C)cc1`, the Ki at Adenosine receptor A1 [1] stood at 43000 nM; on Adenosine A2 receptor [2], 25000 nM.
Regarding `CCCn1c(=O)c2nc[nH]c2n(CCC)c1=O`, the Ki was 710 nM on Adenosine receptor A1 [1] and 1600 nM on Adenosine receptor A1 [5].
Take `CCCn1c(=O)c2nc(-c3ccc(S(=O)(=O)O)cc3)[nH]c2n(CCC)c1=O`: the Ki was 11000 nM at Adenosine A2 receptor [4], 140 nM at Adenosine receptor A1 [1], 430 nM on Adenosine receptor A1 [5] and 1900 nM on Adenosine A2 receptor [2].
`Cn1c(=O)c2nc(-c3ccc(S(=O)(=O)O)cc3)[nH]c2n(C)c1=O`: the Ki at Adenosine A2 receptor [4] came to 5000 nM; on Adenosine A2 receptor [2], 5500 nM.
With `CCCn1c(=O)[nH]c2[nH]c(-c3ccccc3)nc2c1=O`, the Ki was found to be 73 nM on Adenosine A2 receptor [4], 67 nM on Adenosine receptor A1 [1], 36 nM on Adenosine receptor A1 [5] and 20 nM on Adenosine A2 receptor [2].
In the case of `Cn1c(=O)c2c(nc(-c3ccc(C(=O)O)cc3)n2C)n(C)c1=O`, the Ki on Adenosine receptor A1 [1] stood at 61000 nM; at Adenosine A2 receptor [2] it was 150000 nM.
Regarding `Cn1c(=O)c2nc(C3CCCCC3)[nH]c2n(C)c1=O`, the Ki at Adenosine A2 receptor [4] was 450 nM; on Adenosine receptor A1 [1], 110 nM; at Adenosine receptor A1 [5] it was 41 nM; on Adenosine A2 receptor [2], 150 nM.
In turn, `Cn1c(=O)c2nc(-c3ccc(C(=O)O)cc3)[nH]c2n(C)c1=O` registered a Ki on Adenosine A2 receptor [2] of 1500 nM.
Regarding `CCCn1c(=O)c2c(nc(C3CCCCC3)n2C)n(CCC)c1=O`, the values for the Ki at Adenosine A2 receptor [4], on Adenosine receptor A1 [5] and on Adenosine A2 receptor [2] were 1000 nM, 4200 nM and 85 nM, respectively.

(Values after ChEMBL document CHEMBL1124484, “Effects of 8-phenyl and 8-cycloalkyl substituents on the activity of mono-, di-, and trisubstituted alkylxanthines with substitution at the 1-, 3-, and 7-positions” (J Med Chem, 1989).)
